In patent US20220280507A1, “USES OF 5-METHYLTETRAHYDROFOLATE AND ITS COMPOSITION” (Lianyungang Jinkang Hexin Pharmaceutical Co., Ltd., priority 2019, published 2022):
Read-outs that look alike come from different tables or passages of the source.

Columns and labels:
hyperlipemia rats [1] = test: Hyperlipemia rats (high-fat diet), biochemical indexes TG, TC, SOD, MDA; assay type: in vivo, SD rats
Description: (§1) Experiment 5 Effect of 5-Methyltetrahydrofolate Calcium on Hyperlipemia Rats
(§2) 7 weeks later, one rat in the control group and one rat in the model group were sacrificed for liver tissue section to check fatty degeneration of hepatocytes (see Table 7) to confirm whether modeling was successful. The remaining 40 modeling rats were randomly divided into low-dose (1 mg·Kg−1) group, medium-dose (2 mg·Kg−1) group, high-dose (4 mg·Kg−1) group, positive drug group, and model group.
(§3) Bicyclol (place of origin: Beijing Xiehe Pharmaceutical Factory, specification: 25 mg/tablet, batch number: H20040467) was used as a positive drug.
(§4) After successful modeling, rats were administered drugs with dosages as prescribed for 60 consecutive days, continued to be fed with high-fat diet, and dissected on the 61st day. Liver was harvested and weighed, liver index was calculated, right lobe tissue was taken to prepare frozen sections, and fat staining was performed with Sudan III for pathological scoring according to guidelines for diagnosis and treatment of NAFLD. Another liver tissue was taken to prepare homogenate, and total cholesterol (TC), triglyceride (TG), malondialdehyde (MDA), and superoxide dismutase (SOD) in serum were detected.

hyperlipemia rats [2] = test: Hyperlipemia rats (high-fat diet), body mass, liver mass, liver index, NASH pathology; assay type: in vivo, SD rats; details: for Body mass / Liver index / Liver mass: 8 cases; for Pathological state (NASH): of 8 cases
Description: as §1, §2, §3, §4

brain tissue of rats = details: n=5
Description: Experiment 11 Effects of Drinking and 5-Methyltetrahydrofolate on the Concentrations of Formaldehyde and Formate in the Brain of Rats
The concentrations of formaldehyde and formate, as well as those of serotonin and dopamine in brain tissue of rats were detected at this time. SPF-grade female SD rats, fasted overnight, were divided into 4 groups.
(1) Ethanol group, with intragastric administration of ethanol at a dose of 1 g/kg respectively at 1, 2, 3 h, n=5; (2) control group, with intragastric administration of glucose at a dose of 1.6 g/kg (equivalent to alcohol calories) respectively at 1, 2, and 3 h, n=5; (3) 5-methyltetrahydrofolate group, with intragastric administration of 5-methyltetrahydrofolate calcium at a dose of 4 mg/kg at 0 h, followed by glucose at a dose of 1.6 g/kg (equivalent to alcohol calories) respectively at 1, 2, and 3 h, n=5; (4) 5-methyltetrahydrofolate alcohol group, with intragastric administration of 5-methyltetrahydrofolate calcium at a dose of 4 mg/kg at 0 h, followed by ethanol at a dose of 1 g/kg respectively at 1, 2, and 3 h, n=5.
Gas chromatography was used to detect methanol and ethanol concentrations in blood of rats, and HPLC was used to detect formaldehyde concentration in brain tissue. 0.1 g of brain tissue was taken and 0.5 ml of SDN lysate was added to make homogenate, then 0.5 ml of trifluoroacetic acid was added. The sample was centrifuged at 4° C., 0.4 ml of supernatant was collected, 0.1 ml DNPH (1 g/L) was added, mixed and incubated in 60° C. water bath for 30 min, centrifuged at 4° C., and supernatant was collected to detect formaldehyde concentration. Fluorescence spectrometry was used to detect formate concentration in brain. Serotonin and dopamine enzyme-linked immunosorbent reagent was used to detect neurotransmitters in brain in strict accordance with the instructions.

[3] = tested on: alcoholic steatohepatitis; details: 4 mg·Kg−1 daily
Description: Experiment 12 Effect of 5-Methyltetrahydrofolate on Intestine Induced by Chronic Alcohol
96 SPF-grade SD rats, half female and half male, were chosen with an average weight of 176-220 g at the beginning of the experiment, and randomly divided into vehicle control group (glucose, 10 g·Kg−1) and model control group (liquor, 6 g·Kg−1), 5-methyltetrahydrofolate calcium group (folic acid, 4 mg·Kg−1, glucose, 10 g·Kg−1), half female and half, 16 rats in each group. […] The day on which the dose of alcohol reached 6g·Kg−1 was defined as the first day of modeling. The intestinal permeability of rats was measured at Weeks 2 and 8, then 5 rats were sacrificed at random, blood and liver tissues were taken.
8 weeks later, rats in the remaining groups received fecal microbiota transplantation from patients with alcoholic steatohepatitis, and were sacrificed at Week 10, then blood and liver tissues were taken.
60 g of stools were collected from patients with alcoholic steatohepatitis, mixed with 300 mL of normal saline and filtered, and the bacteria solution was stored in an anaerobic bag at 4° C. for later use. After 8 weeks, the remaining rats in all groups were anesthetized with ether, and catheter was used to slowly inject the bacteria solution (2 mL) into their colon, and the rats continued to be fed with the same doses the next day. At Week 10, all rats were sacrificed, liver tissues were stained with H&E and sectioned for disease assessment. At least three different sections of each rat were studied to reasonably assess liver lesions. In order to reasonably assess fatty degeneration, necrosis, inflammation, and fibrosis of liver, liver lesions were graded into different degrees. The proportion of fatty liver cells was <50%, 50-75% and >75%, respectively, corresponding to the severity of fatty degeneration. Focal necrosis was also quantified (number of necrotic foci/mm2), and dense inflammatory infiltrates were also graded. Alcoholic steatohepatitis (ASH) is defined as the presence of inflammatory cell infiltration, spot necrosis and stem cell necrosis in the liver.

[4] = 5-methyltetrahydrofolate calcium 4 mg/kg ig at 0 h + ethanol 1 g/kg at 1, 2, 3 h, 24 h after drinking
[5] = 5-methyltetrahydrofolate calcium 4 mg/kg ig at 0 h + glucose 1.6 g/kg at 1, 2, 3 h, 24 h
[6] = Week 10 after fecal microbiota transplantation, n = 6

5-methyltetrahydrofolate calcium
MDA (hyperlipemia rats [1]; 1 mg·kg−1·d−1, 60 d): 45.20 ± 8.17 nmol/mgprot | SOD (hyperlipemia rats [1]; 1 mg·kg−1·d−1, 60 d): 234.20 ± 21.36 U/mgprot | TC (hyperlipemia rats [1]; 1 mg·kg−1·d−1, 60 d): 1.45 ± 0.38 mmol/L | TG (hyperlipemia rats [1]; 1 mg·kg−1·d−1, 60 d): 1.07 ± 0.33 mmol/L | MDA (hyperlipemia rats [1]; 2 mg·kg−1·d−1, 60 d): 42.26 ± 9.35 nmol/mgprot | SOD (hyperlipemia rats [1]; 2 mg·kg−1·d−1, 60 d): 257.41 ± 30.29 U/mgprot | TC (hyperlipemia rats [1]; 2 mg·kg−1·d−1, 60 d): 1.57 ± 0.36 mmol/L | TG (hyperlipemia rats [1]; 2 mg·kg−1·d−1, 60 d): 1.03 ± 0.55 mmol/L | MDA (hyperlipemia rats [1]; 4 mg·kg−1·d−1, 60 d): 40.98 ± 11.37 nmol/mgprot | SOD (hyperlipemia rats [1]; 4 mg·kg−1·d−1, 60 d): 260.97 ± 30.04 U/mgprot | TC (hyperlipemia rats [1]; 4 mg·kg−1·d−1, 60 d): 1.50 ± 0.34 mmol/L | TG (hyperlipemia rats [1]; 4 mg·kg−1·d−1, 60 d): 1.05 ± 0.63 mmol/L | Body mass (hyperlipemia rats [2]; high dose 4 mg·Kg−1, 60 d): 472.49 ± 37.8 g | Liver index (hyperlipemia rats [2]; high dose 4 mg·Kg−1, 60 d): 2.3 ± 0.5 | Liver mass (hyperlipemia rats [2]; high dose 4 mg·Kg−1, 60 d): 10.9 ± 2.5 g | Pathological state (NASH) (hyperlipemia rats [2]; high dose 4 mg·Kg−1, 60 d): 0 case | Body mass (hyperlipemia rats [2]; low dose 1 mg·Kg−1, 60 d): 445.89 ± 39.0 g | Liver index (hyperlipemia rats [2]; low dose 1 mg·Kg−1, 60 d): 3.4 ± 0.3 | Liver mass (hyperlipemia rats [2]; low dose 1 mg·Kg−1, 60 d): 15.3 ± 3.5 g | Pathological state (NASH) (hyperlipemia rats [2]; low dose 1 mg·Kg−1, 60 d): 1 case | Body mass (hyperlipemia rats [2]; medium dose 2 mg·Kg−1, 60 d): 452.93 ± 37.5 g | Liver index (hyperlipemia rats [2]; medium dose 2 mg·Kg−1, 60 d): 2.6 ± 0.2 | Liver mass (hyperlipemia rats [2]; medium dose 2 mg·Kg−1, 60 d): 11.6 ± 2.9 g | Pathological state (NASH) (hyperlipemia rats [2]; medium dose 2 mg·Kg−1, 60 d): 0 case

CN1c2c([nH]c(N)nc2=O)NCC1CNc1ccc(C(=O)N[C@@H](CCC(=O)O)C(=O)O)cc1 (stereo partly drawn) [5-methyltetrahydrofolate, N-[4-[[(2-amino-1,4,5,6,7,8-hexahydro-4-oxo-5-methyl-(6S), -(6R), and (6R,S)-pteridyl)methyl)amino)toluoyl-glutamic acid]
5-hydroxytryptamine in brain tissue (brain tissue of rats; [4]): 0.10 ± 0.1 µg/L | Dopamine in brain tissue (brain tissue of rats; [4]): 27 ± 4 ng/L | Formaldehyde in brain tissue (brain tissue of rats; [4]): 1.14 ± 0.31 mg/L | Formate in brain tissue (brain tissue of rats; [4]): 5.5 ± 0.4 mg/L | 5-hydroxytryptamine in brain tissue (brain tissue of rats; [5]): 0.12 ± 0.04 µg/L | Dopamine in brain tissue (brain tissue of rats; [5]): 35 ± 3 ng/L | Formaldehyde in brain tissue (brain tissue of rats; [5]): 0.39 ± 0.11 mg/L | Formate in brain tissue (brain tissue of rats; [5]): 2.1 ± 0.2 mg/L | Case percentage: fatty degeneration, percentage of fatty liver cells 50-75% ([3]; Week 8, n = 5): 20% | Case percentage: fatty degeneration, percentage of fatty liver cells < 50% ([3]; Week 8, n = 5): 80% | Case percentage: fatty degeneration, percentage of fatty liver cells > 75% ([3]; Week 8, n = 5): 0% | Case percentage: inflammatory foci 1-4 pcs/mm^2 ([3]; Week 8, n = 5): 0% | Case percentage: inflammatory foci <1 pc/mm^2 ([3]; Week 8, n = 5): 100% | Case percentage: inflammatory foci >4 pcs/mm^2 ([3]; Week 8, n = 5): 0% | Case percentage: liver fibrosis ([3]; Week 8, n = 5): 0% | Case percentage: necrosis foci 1-3 pcs/mm^2 ([3]; Week 8, n = 5): 0% | Case percentage: necrosis foci <1 pc/mm^2 ([3]; Week 8, n = 5): 100% | Case percentage: necrosis foci >3 pcs/mm^2 ([3]; Week 8, n = 5): 0% | Case percentage: fatty degeneration, percentage of fatty liver cells 50-75% [3, 6]: 33.3% | Case percentage: fatty degeneration, percentage of fatty liver cells < 50% [3, 6]: 66.7% | Case percentage: fatty degeneration, percentage of fatty liver cells > 75% [3, 6]: 0% | Case percentage: inflammatory foci 1-4 pcs/mm^2 [3, 6]: 0% | Case percentage: inflammatory foci <1 pc/mm^2 [3, 6]: 100% | Case percentage: inflammatory foci >4 pcs/mm^2 [3, 6]: 0% | Case percentage: liver fibrosis [3, 6]: 0% | Case percentage: necrosis foci 1-3 pcs/mm^2 [3, 6]: 0% | Case percentage: necrosis foci <1 pc/mm^2 [3, 6]: 100% | Case percentage: necrosis foci >3 pcs/mm^2 [3, 6]: 0%
